Test results reported in US20120230914A1, “LABELING COMPOUND FOR PET” (RIKEN, priority 2009, published 2012).
pKd: −log10 of the molar value.

Key:
[1] = Reuptake of labeled metabolite: HPLC of blood and brain extracts after tail vein injection; type: in vivo; conditions: male rats, brain sampled 5, 10 and 20 min after injection
Method: 5, 10 and 20 min after the injection, bloods were sampled from aorta adbominalis and then the brains were taken out and homogenized. Acetonitrile was added to the bloods and homogenated brains and the resultants were subjected to centrifugation, and extracts were subjected to HPLC in order to measure labeled metabolites.
Data for “Monkey” shown in FIG. 8 was obtained by sampling vein blood along with PET imaging, centrifuging the sampled vein blood, adding acetonitrile to the blood plasma and centrifuging the blood plasma, and subjecting the extract to HPLC to measure parent compound in the blood plasma.

aromatase [2] = biological target: T1, aromatase (Macaca mulatta, UniProt A0A1D5QZ23); experiment: Replacement test with non-radiolabeled vorozole (PET binding potential); type: in vivo; set-up: allows quantifying aromatase in the brain with higher accuracy; from tissue; host or cells: brain of living male Rhesus macaques (amygdala, hypothalamus, nucleus accumbens); conditions: Rhesus macaques; after non-radiolabeled VOR 100 μg/kg; compared with VOR
T1 sequence (A0A1D5QZ23 1-503): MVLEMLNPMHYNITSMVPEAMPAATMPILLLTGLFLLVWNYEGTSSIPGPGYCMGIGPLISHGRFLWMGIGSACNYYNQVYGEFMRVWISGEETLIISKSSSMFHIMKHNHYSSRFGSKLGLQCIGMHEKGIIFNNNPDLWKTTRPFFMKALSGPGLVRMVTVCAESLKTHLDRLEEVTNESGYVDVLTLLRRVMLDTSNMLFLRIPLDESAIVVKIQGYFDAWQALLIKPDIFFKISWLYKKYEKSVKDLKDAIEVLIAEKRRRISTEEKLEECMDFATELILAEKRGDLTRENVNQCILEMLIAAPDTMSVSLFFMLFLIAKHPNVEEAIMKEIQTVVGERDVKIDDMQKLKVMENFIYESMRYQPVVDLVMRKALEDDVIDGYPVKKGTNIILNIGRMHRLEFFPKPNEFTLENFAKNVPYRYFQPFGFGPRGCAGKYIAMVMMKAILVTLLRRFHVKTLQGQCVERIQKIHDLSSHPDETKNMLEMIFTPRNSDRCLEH
Method: 5 min before administration of the Compound (10), non-radiolabeled vorozole (VOR) (100 μg/kg) was administered, and binding potential (BP) of Rhesus macaques were observed.

aromatase [3] = biological target: T1, aromatase; experiment: PET measurement (binding potential images and SUV in brain regions); conditions: for specific binding in amygdala (binding potential images): male Rhesus macaques, i.v. 33 MBq/kg, 90 min scan, cerebellum as reference region; for binding potential (difference among the compounds): Rhesus macaques, relative to Compounds (10), (22), (33), (39)
Method: (§1) (i) Male Rhesus macaques were subjected to PET measurement. Specifically, Rhesus macaques were put under sedation with ketalar (10 mg/kg), and intravenous catheters for RI administration were attached to their legs. Thereafter, the Rhesus macaques were anesthetized using propofol (10 mg/kg/h), and were immobilized in a PET scanner.
(§2) After reconstructing images, binding potential (BP) images with cerebellum as a reference region were constructed. The binding potential used herein indicates a value obtained by dividing an association rate constant by a dissociation rate constant.
(§3) SUV is a value obtained by dividing radioactivity density per 1 ml of tissue by radioactivity density per 1 g of body weight, i.e. SUV=radioactivity density per 1 ml of tissue/radioactivity density per 1 g of body weight.

aromatase [4] = experiment: as above; conditions: for temporal change in SUV (standardized uptake value) in the latter part of scanning: Rhesus macaques, cerebellum, amygdala, hypothalamus, nucleus accumbens
Method: as §1, §2, §3

aromatase [5] = biological target: T2, aromatase (Rattus norvegicus, UniProt P22443); experiment: In vitro binding test (ligand saturation, Scatchard plot analysis); set-up: species or system rats
T2 construct: from tissue; host or cells: rat ovary homogenate (female rats)
T2 sequence (P22443 1-508): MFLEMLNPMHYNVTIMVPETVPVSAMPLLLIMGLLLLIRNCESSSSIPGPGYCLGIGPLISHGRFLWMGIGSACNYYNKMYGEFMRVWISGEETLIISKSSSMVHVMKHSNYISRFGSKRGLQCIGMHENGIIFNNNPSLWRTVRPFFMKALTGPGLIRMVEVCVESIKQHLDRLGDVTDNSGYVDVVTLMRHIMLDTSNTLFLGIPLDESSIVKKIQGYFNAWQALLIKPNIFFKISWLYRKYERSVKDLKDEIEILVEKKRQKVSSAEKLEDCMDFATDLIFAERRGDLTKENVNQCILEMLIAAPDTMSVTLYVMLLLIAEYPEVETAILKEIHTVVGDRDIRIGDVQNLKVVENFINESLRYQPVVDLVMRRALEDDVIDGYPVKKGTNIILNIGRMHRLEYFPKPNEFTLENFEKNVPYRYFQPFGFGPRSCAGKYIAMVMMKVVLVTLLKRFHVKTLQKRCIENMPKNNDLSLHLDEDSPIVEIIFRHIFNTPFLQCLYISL
Method: Specifically, female rats were anesthetized with diethyl ether, and 0.01 M phosphate buffered saline (PBS, pH 7.4) was perfused via hearts. Ovaries of the rats were removed immediately and homogenized in 1 mL of a 0.32 M sucrose solution.
After filtration, counting was performed by a γ counter, and the average of KD was calculated by Scatchard plot analysis.

Compound | reuptake of labeled metabolite into the brain [1] | amount of replaced binding (considered nonspecific binding) (aromatase [2]) | specific binding in amygdala (binding potential images) (aromatase [3]) | temporal change in SUV (standardized uptake value) in the latter part of scanning (aromatase [4]) | nonspecific binding of the labeled compound to cerebral cortex etc. (aromatase [4]; male Rhesus macaques, compared to conventional [11C]vorozole) | affinity relative to VOR (aromatase [5]; from KD values) | pKd (aromatase [5]; homogenized rat ovaries, room temperature, 30 min, nonspecific binding with 1 μM non-radiolabeled VOR, read-out: dissociation constant (KD)) | binding potential (difference among the compounds) (aromatase [3])
[11CH3]c1ccc(CN(c2ccc(C#N)cc2)n2cnnc2)cc1 [Compound (10), 4-{(4-[^11C]Methylbenzyl)(4H-1,2,4-triazol-4-yl)amino}benzonitrile] | such reuptake was not observed | smaller amount of replaced binding than the case of VOR | specific binding was observed in amygdala | decreases as time passes | decreased | approximately twice higher affinity than VOR | 9.52 | –
[11CH3]c1cccc(CN(c2ccc(C#N)cc2)n2cnnc2)c1 [Compound (22), 4-{(3-[^11C]Methylbenzyl)(4H-1,2,4-triazol-4-yl)amino}benzonitrile] | – | – | specific binding was observed in amygdala | decreases as time passes | – | – | – | relatively low binding potential
[11CH3]c1ccc(CN(c2ccc([N+](=O)[O-])cc2)n2cnnc2)cc1 [Compound (33), 4-{(4-[^11C]Methylbenzyl)(4H-1,2,4-triazol-4-yl)amino}nitrobenzene] | – | – | specific binding was observed in amygdala | decreases as time passes | – | – | – | –
[11CH3]c1ccc(CN(c2ccc(C#N)cc2)n2cncn2)cc1 [Compound (39), 4-{(4-[^11C]Methylbenzyl)(1H-1,2,4-triazol-1-yl)amino}benzonitrile] | – | – | specific binding was observed in amygdala | decreases as time passes | – | – | – | relatively high binding potential
